Starred links: 1 amine or outer side, 2 acyl side, 3 side chain; linkers in the order of their positions; H or OH if unused. Positions of bridges follow the written chain, without caps; N, C: chain ends. Non-standard residues stand in square brackets, D forms with d. Residues, ends and D or L forms follow the SMILES beside them. *: point of attachment. X3 = C[C@H](c1ccc2ccccc2c1)[C@H](N[*:1])C(=O)[*:2]; Trp(7-Me) = Cc1cccc2c(C[C@H](N)C(=O)O)c[nH]c12; 2Nal = N[C@@H](Cc1ccc2ccccc2c1)C(=O)O; AEF = NCCOc1ccc(C[C@H](N)C(=O)O)cc1; αMeY = C[C@](N)(Cc1ccc(O)cc1)C(=O)O; αMeF = C[C@](N)(Cc1ccccc1)C(=O)O; αMeE = C[C@](N)(CCC(=O)O)C(=O)O; Pen = CC(C)(S)[C@H](N)C(=O)O; Isobutyryl = CC(C)C(=O)*; Thp = NC1(C(=O)O)CCOCC1; Boc = CC(C)(C)OC(=O)*; Propionyl = CCC(=O)*
Biological target: IL-23R (Homo sapiens, UniProt Q5VWK5)
Sequence (Q5VWK5 24-629): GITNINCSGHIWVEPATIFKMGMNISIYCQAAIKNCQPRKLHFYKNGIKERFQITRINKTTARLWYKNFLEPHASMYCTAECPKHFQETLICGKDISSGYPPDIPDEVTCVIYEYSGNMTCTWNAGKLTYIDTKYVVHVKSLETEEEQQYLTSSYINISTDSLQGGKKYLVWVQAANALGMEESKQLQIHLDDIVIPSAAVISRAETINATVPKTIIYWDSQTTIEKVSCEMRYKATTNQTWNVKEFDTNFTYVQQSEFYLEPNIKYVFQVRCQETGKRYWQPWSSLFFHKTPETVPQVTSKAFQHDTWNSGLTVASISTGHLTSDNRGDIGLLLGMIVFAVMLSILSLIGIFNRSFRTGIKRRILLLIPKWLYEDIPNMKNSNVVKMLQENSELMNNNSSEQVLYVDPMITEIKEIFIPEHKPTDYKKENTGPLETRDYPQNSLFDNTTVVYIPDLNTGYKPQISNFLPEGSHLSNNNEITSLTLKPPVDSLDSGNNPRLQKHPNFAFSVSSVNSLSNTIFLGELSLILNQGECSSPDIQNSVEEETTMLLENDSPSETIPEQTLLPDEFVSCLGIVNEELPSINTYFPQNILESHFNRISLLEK
Assay: cell-based
Conditions: PBMC pSTAT3 IC50 (nM), PBMCs from healthy donors, IL-23 5 ng/mL, 30 minutes, phosphorylated STAT3
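Also: cryopreserved PBMCs stimulated at 37 °C in 5% CO2, then lysed, with phosphorylated STAT3 quantified in lysates using a phospho-STAT panel kit.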

`CCC(=O)N[C@H](CCCNC(=N)N)C(=O)N[C@@H]1C(=O)N[C@@H](CCC(N)=O)C(=O)N[C@@H]([C@@H](C)O)C(=O)N[C@@H](Cc2c[nH]c3ccccc23)C(=O)N[C@@H](CCC(N)=O)C(=O)N[C@H](C(=O)N[C@@H](Cc2ccc(OCCN)cc2)C(=O)N[C@@H](Cc2ccc3ccccc3c2)C(=O)NC2(C(=O)N[C@@H](CCC(=O)O)C(=O)N[C@@H](CC(N)=O)C(=O)N[C@@](C)(Cc3ccccc3)C(N)=O)CCOCC2)C(C)(C)SSC1(C)C` [Compound 3, [Propionic_acid]-[(D)Arg]-[Pen]-Q-T-W-Q-[Pen]-Phe[4-(2-aminoethoxy)]-[2-Nal]-[THP]-E-N-[a-MePhe]-NH2] (Propionyl-[dR][Pen]QTWQ[Pen][AEF][2Nal][Thp]EN[αMeF]-NH2; disulfide 2-7) was tested, and the IC50 was 40 nM.

With `CC(=O)NCCCC[C@@H]1NC(=O)[C@H](Cc2c[nH]c3c(C)cccc23)NC(=O)[C@H]([C@@H](C)O)NC(=O)[C@H](CC(N)=O)NC(=O)[C@@H](NC(=O)[C@@H](CCCNC(=N)N)NC(C)=O)C(C)(C)SSC(C)(C)[C@@H](C(=O)N[C@@H](Cc2ccc(OCCN)cc2)C(=O)N[C@@H](Cc2ccc3ccccc3c2)C(=O)NC2(C(=O)N[C@@H](CCC(=O)O)C(=O)N[C@@H](CC(N)=O)C(=O)N[C@@](C)(Cc3ccccc3)C(N)=O)CCOCC2)NC1=O` [Compound 77, Ac-[(D)Arg]-[Pen]-N-T-[W(7-Me)]-[Lys(Ac)]-[Pen]-Phe[4-(2-aminoethoxy)]-[2-Nal]-[THP]-E-N-[a-MePhe]-NH2] (Ac-[dR][Pen]NT[Trp(7-Me)]K(Ac)[Pen][AEF][2Nal][Thp]EN[αMeF]-NH2; disulfide 2-7) the IC50 was 6.4 nM.

Work on `CCCC(=O)NCCCC[C@H](NC(=O)C1(NC(=O)[C@H](Cc2ccc3ccccc3c2)NC(=O)[C@H](Cc2ccc(OCCN)cc2)NC(=O)[C@H]2NC(=O)[C@H](CCC(N)=O)NC(=O)[C@H](Cc3c[nH]c4ccccc34)NC(=O)[C@H]([C@@H](C)O)NC(=O)[C@H](CCC(N)=O)NC(=O)[C@@H](NC(=O)[C@@H](CCCNC(=N)N)NC(C)=O)C(C)(C)SSC2(C)C)CCOCC1)C(=O)N[C@@H](CC(N)=O)C(=O)NC1(C(N)=O)CCOCC1` [Compound 52, Ac-[(D)Arg]-[Pen]-Q-T-W-Q-[Pen]-Phe[4-(2-aminoethoxy)]-[2-Nal]-[THP]-[Lys(COPr)]-N-[THP]-NH2] yielded an IC50 of 16 nM.

Compound `CC(=O)NCCCC[C@@H]1NC(=O)[C@H](Cc2c[nH]c3c(C)cccc23)NC(=O)[C@H]([C@@H](C)O)NC(=O)[C@H](CC(N)=O)NC(=O)[C@@H](NC(=O)[C@@H](CCCNC(=N)N)NC(C)=O)C(C)(C)SSC(C)(C)[C@@H](C(=O)N[C@@H](Cc2ccc(OCCN)cc2)C(=O)N[C@@H](Cc2ccc3ccccc3c2)C(=O)NC2(C(=O)N[C@@](C)(CCC(=O)O)C(=O)N[C@@H](CC(N)=O)C(=O)N[C@@](C)(Cc3ccc(O)cc3)C(N)=O)CCOCC2)NC1=O` [Compound 150, Ac-[(D)Arg]-[Pen]-N-T-[W(7-Me)]-[Lys(Ac)]-[Pen]-Phe[4-(2-aminoethoxy)]-[2-Nal]-[THP]-[aMeGlu]-N-[aMeTyr]-NH2] (Ac-[dR][Pen]NT[Trp(7-Me)]K(Ac)[Pen][AEF][2Nal][Thp][αMeE]N[αMeY]-NH2; disulfide 2-7) has an IC50 of 4.7 nM.

In the case of `CC(=O)NCCCC[C@@H]1NC(=O)[C@H](Cc2c[nH]c3c(C)cccc23)NC(=O)[C@H]([C@@H](C)O)NC(=O)[C@H](CC(N)=O)NC(=O)[C@@H](NC(C)=O)C(C)(C)SSC(C)(C)[C@@H](C(=O)N[C@@H](Cc2ccc(OCCN)cc2)C(=O)N[C@@H](Cc2ccc3ccccc3c2)C(=O)N[C@@](C)(CCCCN)C(=O)N[C@@H](CCCCNC(C)=O)C(=O)N[C@@H](CC(N)=O)C(=O)NC2(C(N)=O)CCOCC2)NC1=O` [Compound 75, Ac-[Pen]-N-T-[W(7-Me)]-[Lys(Ac)]-[Pen]-Phe[4-(2-aminoethoxy)]-[2-Nal]-[a-MeLys]-[Lys(Ac)]-N-[THP]-NH2], the IC50 is reported as 8.9 nM.

`CCC(=O)N[C@H](CCCNC(=N)N)C(=O)N[C@@H]1C(=O)N[C@@H](CCC(N)=O)C(=O)N[C@@H]([C@@H](C)O)C(=O)N[C@@H](Cc2c[nH]c3ccccc23)C(=O)N[C@@H](CCC(N)=O)C(=O)N[C@H](C(=O)N[C@@H](Cc2ccc(OCCN)cc2)C(=O)N[C@H](C(=O)NC2(C(=O)N[C@@H](CCC(=O)O)C(=O)N[C@@H](CC(N)=O)C(=O)NC3(C(N)=O)CCOCC3)CCOCC2)[C@H](C)c2ccc3ccccc3c2)C(C)(C)SSC1(C)C` [Compound 307, EtCO-r-Pen-Q-T-W-Q-Pen-AEF-bMe2Nal(2S,3R)-THP-E-N-THP---CONH2] (Propionyl-[dR][Pen]QTWQ[Pen][AEF][X3][Thp]EN[Thp]-NH2; disulfide 2-7) gave an IC50 of 52 nM.

Work on `CC(=O)N[C@H](CCCNC(=N)N)C(=O)N[C@@H]1C(=O)N[C@@H](CCC(N)=O)C(=O)N[C@@H]([C@@H](C)O)C(=O)N[C@@H](Cc2c[nH]c3ccccc23)C(=O)N[C@@H](CCC(N)=O)C(=O)N[C@H](C(=O)N[C@@H](Cc2ccc(OCCN)cc2)C(=O)N[C@@H](Cc2ccc3ccccc3c2)C(=O)NC2(C(=O)N[C@@H](CCCCNC(=O)C(C)C)C(=O)N[C@@H](CC(N)=O)C(=O)N[C@@H](Cc3ccccc3)C(N)=O)CCOCC2)C(C)(C)SSC1(C)C` [Compound 61, Ac-[(D)Arg]-[Pen]-Q-T-W-Q-[Pen]-Phe[4-(2-aminoethoxy)]-[2-Nal]-[THP]-[Lys(COiPr)]-N-F-NH2] (Ac-[dR][Pen]QTWQ[Pen][AEF][2Nal][Thp]K(Isobutyryl)NF-NH2; disulfide 2-7) yielded an IC50 of 70 nM.

`CC(=O)N[C@H](CCCNC(=N)N)C(=O)N[C@H]1CCSC[C@@H](C(=O)N[C@@H](Cc2ccc(OCCN)cc2)C(=O)N[C@@H](Cc2ccc3ccccc3c2)C(=O)NC2(C(=O)N[C@@H](CCC(=O)O)C(=O)N[C@@H](CC(N)=O)C(=O)N[C@@](C)(Cc3ccccc3)C(N)=O)CCOCC2)NC(=O)[C@H](CCC(N)=O)NC(=O)[C@H](Cc2c[nH]c3ccccc23)NC(=O)[C@H]([C@@H](C)O)NC(=O)[C@H](CCC(N)=O)NC1=O` [Compound 123, Ac-[(D)Arg]-[Abu]-Q-T-W-Q-[Cys]-Phe[4-(2-aminoethoxy)]-[2-Nal]-[THP]-E-N-[a-MePhe]-NH2] showed an IC50 of 11 nM.

`CCC(=O)N[C@H](CCCNC(=N)N)C(=O)N[C@H]1CCSC[C@@H](C(=O)N[C@@H](Cc2ccc(OCCN)cc2)C(=O)N[C@@H](Cc2ccc3ccccc3c2)C(=O)NC2(C(=O)N[C@@H](CCC(=O)O)C(=O)N[C@@H](CC(N)=O)C(=O)NC3(C(N)=O)CCOCC3)CCOCC2)NC(=O)[C@H](CCC(N)=O)NC(=O)[C@H](Cc2c[nH]c3ccccc23)NC(=O)[C@H]([C@@H](C)O)NC(=O)[C@H](CCC(N)=O)NC1=O` [Compound 2, [Propionic_acid]-[(D)Arg]-[Abu]-Q-T-W-Q-[Cys]-Phe[4-(2-aminoethoxy)]-[2-Nal]-[THP]-E-N-[THP]-NH2] gave an IC50 of 3.3 nM.

Compound `CC(=O)NCCCC[C@H](NC(=O)[C@](C)(CCCCN)NC(=O)[C@H](Cc1ccc2ccccc2c1)NC(=O)[C@H](Cc1ccc(OCCN)cc1)NC(=O)[C@]1(C)CSSC[C@H](NC(C)=O)C(=O)N[C@@H](CC(N)=O)C(=O)N[C@@H]([C@@H](C)O)C(=O)N[C@@H](Cc2c[nH]c3c(C)cccc23)C(=O)N[C@@H](CCC(N)=O)C(=O)N1)C(=O)N[C@@H](CC(N)=O)C(=O)N[C@@](C)(Cc1ccccc1)C(N)=O` [Compound 119, Ac-[Cys]-N-T-[W(7-Me)]-Q-[aMeCys]-Phe[4-(2-aminoethoxy)]-[2-Nal]-[a-MeLys]-[Lys(Ac)]-N-[a-MePhe]-NH2] has an IC50 of 5.3 nM.

`CC(=O)NCCCC[C@@H]1NC(=O)[C@H](Cc2c[nH]c3c(C)cccc23)NC(=O)[C@H]([C@@H](C)O)NC(=O)[C@H](CC(N)=O)NC(=O)[C@@H](NC(=O)[C@H](N)CCCNC(=N)N)C(C)(C)SSC(C)(C)[C@@H](C(=O)N[C@@H](Cc2ccc(OCCNC(=O)OC(C)(C)C)cc2)C(=O)N[C@@H](Cc2ccc3ccccc3c2)C(=O)NC2(C(=O)N[C@@H](CCC(=O)O)C(=O)N[C@@H](CC(N)=O)C(=O)N[C@@](C)(Cc3ccccc3)C(N)=O)CCOCC2)NC1=O` [Compound 305, NH2-r-Pen-N-T-7MeW-K(Ac)-Pen-AEF(Boc)-2Nal-THP-E-N-aMePhe-CONH2] (H-[dR][Pen]NT[Trp(7-Me)]K(Ac)[Pen][AEF](Boc)[2Nal][Thp]EN[αMeF]-NH2; disulfide 2-7) showed an IC50 of 17 nM.

`CC(=O)N[C@H](CCCNC(=N)N)C(=O)N[C@H]1CCSC[C@@H](C(=O)N[C@@H](Cc2ccc(OCCN)cc2)C(=O)N[C@@H](Cc2ccc3ccccc3c2)C(=O)NC2(C(=O)N[C@@](C)(CCC(=O)O)C(=O)N[C@@H](CC(N)=O)C(=O)N[C@@](C)(Cc3c[nH]c4ccccc34)C(N)=O)CCOCC2)NC(=O)[C@H](CCC(N)=O)NC(=O)[C@H](Cc2c[nH]c3ccccc23)NC(=O)[C@H]([C@@H](C)O)NC(=O)[C@H](CCC(N)=O)NC1=O` [Compound 31, Ac-[(D)Arg]-[Abu]-Q-T-W-Q-[Cys]-Phe[4-(2-aminoethoxy)]-[2-Nal]-[THP]-[aMeGlu]-N-ameW-NH2] gave an IC50 of 16 nM.

With `CC(=O)NCCCC[C@@H]1NC(=O)[C@H](Cc2c[nH]c3c(C)cccc23)NC(=O)[C@H]([C@@H](C)O)NC(=O)[C@H](CC(N)=O)NC(=O)[C@@H](NC(C)=O)C(C)(C)SSC(C)(C)[C@@H](C(=O)N[C@@H](Cc2ccc(OCCN)cc2)C(=O)N[C@@H](Cc2ccc3ccccc3c2)C(=O)N[C@@](C)(CCCCN)C(=O)N[C@@H](CCCCNC(C)=O)C(=O)N[C@@H](CC(N)=O)C(=O)N[C@@](C)(Cc2ccccc2)C(N)=O)NC1=O` [Compound 76, Ac-[Pen]-N-T-[W(7-Me)]-[Lys(Ac)]-[Pen]-Phe[4-(2-aminoethoxy)]-[2-Nal]-[a-MeLys]-[Lys(Ac)]-N-[a-MePhe]-NH2] the IC50 was 11 nM.

In the case of `CC(=O)NCCCC[C@@H]1NC(=O)[C@H](Cc2c[nH]c3c(C)cccc23)NC(=O)[C@H]([C@@H](C)O)NC(=O)[C@H](CC(N)=O)NC(=O)[C@@H](NC(=O)[C@@H](CCCNC(=N)N)NC(C)=O)C(C)(C)SSC(C)(C)[C@@H](C(=O)N[C@@H](Cc2ccc(OCCN)cc2)C(=O)N[C@@H](Cc2ccc3ccccc3c2)C(=O)NC2(C(=O)N[C@@H](CCC(=O)O)C(=O)N[C@@H](CC(N)=O)C(=O)NC3(C(N)=O)CCOCC3)CCOCC2)NC1=O` [Compound 92, Ac-[(D)Arg]-[Pen]-N-T-[W(7-Me)]-[Lys(Ac)]-[Pen]-Phe[4-(2-aminoethoxy)]-[2-Nal]-[THP]-E-N-[THP]-NH2] (Ac-[dR][Pen]NT[Trp(7-Me)]K(Ac)[Pen][AEF][2Nal][Thp]EN[Thp]-NH2; disulfide 2-7), the IC50 is reported as 3.3 nM.
